The values that follow come from ChEMBL document CHEMBL5385890, “A JAK tyrosine kinase and pseudokinase Co-inhibition strategy combines enhanced potency and on-demand activation” (Eur J Med Chem, 2023).

In general, IC50 refers to the midpoint of a concentration-inhibition curve. By inhibition is commonly meant the drop in the measured response relative to a control, in per cent.

Data set [1] deals with BaF3. Briefly: Cytotoxicity against mouse BaF3 cells harboring EPOR JAK2 V617F mutant measured after 24 hrs by XTT assay. Particulars: BaF3, 24 h. It counts as functional, cell-based. For orientation: Tetrazolium dyes change colour on reduction, which living cells bring about.
Data set [2] relates to HEL. Briefly: Cytotoxicity against HEL cells assessed as inhibition of cell growth. The class given is functional, cell-based. Particulars: Homo sapiens.
Data set [3] is described as follows: Cytotoxicity against HUVEC cells assessed as inhibition of cell growth. The class given is toxicity, cell-based. Conditions: human.
The nature of data set [4]: Cytotoxicity against HUVEC cells assessed as inhibition of cell growth incubated in presence of N-tert-butyl-3-[[5-methyl-2-(4-piperazin-1-ylanilino)pyrimidin-4-yl]amino]benzenesulfonamide. Particulars: human.
Data set [5] is described as follows: Stability of compound in PBS measured after 24 hrs. It counts as physicochemical. Particulars: PBS, read-out: Stability.
Data set [6] in a line: Stability of compound in mouse plasma measured after 24 hrs. It counts as ADME, cell-free. Particulars: read-out: Stability.
A short description of data set [7]: Stability of compound in human plasma measured after 24 hrs. The class given is ADME, cell-free. Conditions: read-out: Stability.
The nature of data set [8]: Prodrug release in HEL cells assessed as N-tert-butyl-3-[[5-methyl-2-(4-piperazin-1-ylanilino)pyrimidin-4-yl]amino]benzenesulfonamide formation at 1 uM illuminated with 405 nm light for 10 mins and measured after 6 hrs by LC-MS/MS analysis. It counts as ADME, cell-based. Conditions: human, 6.167 h, time 370 min.
The nature of data set [9]: Prodrug release in HEL cells assessed as 3-cyclopropyl-1-(3-{5-[(morpholin-4-yl)methyl]-1H-1,3-benzodiazol-2-yl}-1H-pyrazol-4-yl)urea formation at 1 uM illuminated with 405 nm light for 10 mins and measured after 6 hrs by LC-MS/MS analysis. Conditions: human, 6.167 h, time 370 min. It counts as ADME, cell-based.
Data set [10] in a line: Prodrug release in HEL cells assessed as N-tert-butyl-3-[[5-methyl-2-(4-piperazin-1-ylanilino)pyrimidin-4-yl]amino]benzenesulfonamide formation at 1 uM incubated under dark condition for 6 hrs by LC-MS/MS analysis. The class given is ADME, cell-based. Conditions: human.
A short description of data set [11]: Prodrug release in HEL cells assessed as 3-cyclopropyl-1-(3-{5-[(morpholin-4-yl)methyl]-1H-1,3-benzodiazol-2-yl}-1H-pyrazol-4-yl)urea formation at 1 uM incubated under dark condition for 6 hrs by LC-MS/MS analysis. The class given is ADME, cell-based. Particulars: human.
Data set [12] deals with HEL. Put plainly: Cytotoxicity against HEL cells assessed as inhibition of cell growth irradiated with 450 nm light. It counts as functional, cell-based. Particulars: Homo sapiens, light or radiation study.
Data set [13] concerns HEL. Put plainly: Cytotoxicity against HEL cells assessed as inhibition of cell growth incubated under dark condition. Particulars: Homo sapiens. The class given is functional, cell-based.
Data set [14] has as its system HEL. Briefly: Inhibition of JAK/STAT phosphorylation in HEL cells assessed as reduction in STAT3 phosphorylation at 1 uM irradiated with 450 nm light by Western blot analysis relative to control. The class given is cell-based. Conditions: Homo sapiens. (In general: Immunoblotting shows a protein as a band on a membrane.)
The subject of data set [15] is HEL. Put plainly: Inhibition of JAK/STAT phosphorylation in HEL cells assessed as reduction in STAT5 phosphorylation at 1 uM irradiated with 450 nm light by Western blot analysis relative to control. It counts as cell-based. Particulars: Homo sapiens.
Data set [16] relates to HEL. Put plainly: Inhibition of JAK/STAT phosphorylation in HEL cells assessed as reduction in STAT3 phosphorylation at 1 uM incubated under dark condition by Western blot analysis relative to control. The class given is cell-based. Conditions: Homo sapiens.
Data set [17] has as its system HEL. Briefly: Inhibition of JAK/STAT phosphorylation in HEL cells assessed as reduction in STAT5 phosphorylation at 1 uM incubated under dark condition by Western blot analysis relative to control. It counts as cell-based. Conditions: Homo sapiens.

The structures appear in SMILES notation. The source made the active and inactive calls. No cut-off for these calls is given here. Where only a bound is given, the exact number is not on record here.

On to `Cc1cnc(Nc2ccc(N3CCN(C)CC3)cc2)nc1Nc1cccc(S(=O)(=O)NC(C)(C)C)c1`, for which the 50% inhibitory concentration (IC50) in data set [1] came to 170 nM.
On to `C[C@@H]1CCN(C(=O)CC#N)C[C@@H]1N(C)c1ncnc2[nH]ccc12` [TOFACITINIB], for which the IC50 in [2] is 3.83 µM.
Take `O=C(Nc1c[nH]nc1-c1nc2cc(CN3CCOCC3)ccc2[nH]1)NC1CC1` [AT-9283]: the IC50 in data set [3] was 1770 nM; in data set [4] it was 1760 nM.
Turning to `CCN(CC)c1ccc2c(COC(=O)Oc3c(COC(=O)N4CCN(c5ccc(Nc6ncc(C)c(Nc7cccc(S(=O)(=O)NC(C)(C)C)c7)n6)cc5)CC4)cc(C)cc3COC(=O)n3cc(NC(=O)NC4CC4)c(-c4nc5cc(CN6CCOCC6)ccc5[nH]4)n3)cc(=O)oc2c1`, the remaining at 24 h is greater than 95.1% in [5], greater than 82.8% in data set [6] and greater than 78.3% in data set [7]. For the same compound, the Drug metabolism result in data set [8] is “Metabolite_Detected”; in data set [9], “Metabolite_Detected”; in [10] it was “Metabolite_Notdetected”; in data set [11] it was “Metabolite_Notdetected”. Moreover, the figures for the IC50 in data set [3], in [12] and in [13] were greater than 200000 nM, 1810 nM and greater than 200 µM, respectively. Also, the inhibition in data set [14] and in data set [15] was 100% in each case. The inhibition result in data set [16] and in [17] was “inactive” in each case.
